Reference: patent US9777020B2, “Furo-3-carboxamide derivatives and methods of use” (AbbVie Inc., priority 2014, dated 2017)

Target: TrkA (Homo sapiens (Human), UniProt P04629)
Test: TrkA kinase HTRF enzyme inhibition assay
Assay type: biochemical
Conditions: TrkA pre-incubated with 200 μM ATP
Experimental: TrkA enzyme was obtained from Invitrogen (as catalog numbers PV3144, PV3616, and PV3617, respectively). Enzyme activity was measured in an HTRF® (homogeneous time resolved fluorescence) assay, which detects enzymatic phosphorylation of a biotinylated synthetic peptide substrate (an LCK peptide analog, biotin-ahx-[…], from Genemed Synthesis). Phosphorylation is assessed by HTRF® in the presence of an anti-phosphotyrosine antibody conjugated to Eu^3+ cryptate (Cisbio) as donor fluorophore, and streptavidin conjugated to allophycocyanin (ProZyme) as acceptor fluorophore. The HTRF® signal was detected at two different wavelengths (620 nm and 665 nm) which were used to calculate the fluorescence ratio.
TrkA enzyme was titrated to a concentration optimized to ensure accurate measurement of the initial reaction rate. To allow the TrkA enzyme to undergo activation and auto-phosphorylation, a 20 minute pre-incubation with ATP was carried out (at twice the final targeted enzyme and ATP concentration) prior to addition of test compound and the peptide substrate.
TrkA in vitro assays were performed by pre-incubating TrkA (2-10 nM) with ATP (200 μM) for 20 minutes at ambient temperature in 50 mM HEPES pH 7.4, 10 mM MgCl2, 2 mM MnCl2, 100 μM Na3VO4, 1 mM dithiothreitol, 0.01% BSA (bovine serum albumin). Then, to the activated Trk enzyme mixture was added the test compound in 2% dimethyl sulfoxide. After 10 minutes, the peptide substrate (125 nM) was added. After 1 hour, enzyme reactions were terminated by addition of equal reaction volumes of detection/stop reagent (containing 0.2 μg/mL anti-phosphotyrosine monoclonal antibody labeled with europium from Cisbio (catalog#PT66-K), and 4 μg/mL PhycoLink® Streptavidin-Allophycocyanin conjugate from ProZyme (catalog#PJ25S) in 60 mM EDTA in 40 mM HEPES pH 7.4, 480 mM KF, 0.01% Tween® 20 and 0.1% BSA bovine serum albumin) Reaction plates were stored at 4° C. overnight before reading the fluorescence ratio signal on a PerkinElmer EnVision™ fluorescence detector. Individual reaction wells were stopped at time points to obtain reaction rates. The test inhibitor compounds were assayed in duplicate, at half-log serial dilutions over a range of concentrations (e.g. starting at 50 μM or 5 μM as the high compound concentration). The percent Trk enzyme inhibition was calculated from the initial rates of the inhibited reactions relative to the uninhibited control. IC50 values were calculated by fitting the inhibition percent to the concentration of inhibitor [I] in the assay in equation 1 below, to solve for the IC50. Inhibition %=100[I]/([I]+[IC50]) equation 1

TrkA, sequence (P04629 33-796): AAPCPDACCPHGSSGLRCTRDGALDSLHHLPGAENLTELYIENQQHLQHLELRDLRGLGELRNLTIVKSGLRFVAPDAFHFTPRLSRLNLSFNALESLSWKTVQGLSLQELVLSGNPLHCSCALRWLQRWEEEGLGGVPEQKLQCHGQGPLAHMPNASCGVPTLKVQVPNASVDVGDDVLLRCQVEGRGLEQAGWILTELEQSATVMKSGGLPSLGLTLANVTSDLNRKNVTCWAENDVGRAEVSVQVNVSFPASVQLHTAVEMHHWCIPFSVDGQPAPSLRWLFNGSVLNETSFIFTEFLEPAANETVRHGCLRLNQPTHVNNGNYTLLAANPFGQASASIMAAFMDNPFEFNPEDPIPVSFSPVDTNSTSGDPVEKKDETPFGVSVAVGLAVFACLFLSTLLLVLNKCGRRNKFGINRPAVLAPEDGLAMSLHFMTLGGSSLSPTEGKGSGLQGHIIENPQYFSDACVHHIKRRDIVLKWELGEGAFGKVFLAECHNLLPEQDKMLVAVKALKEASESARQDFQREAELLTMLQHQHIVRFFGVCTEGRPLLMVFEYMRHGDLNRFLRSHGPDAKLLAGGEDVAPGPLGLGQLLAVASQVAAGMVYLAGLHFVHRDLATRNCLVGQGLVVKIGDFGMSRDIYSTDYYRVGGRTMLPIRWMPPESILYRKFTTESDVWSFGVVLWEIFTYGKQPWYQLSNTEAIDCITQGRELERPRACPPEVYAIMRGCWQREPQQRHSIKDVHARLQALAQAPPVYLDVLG

SMILES | IC50
N#Cc1ccc(NC(=O)c2coc3c2C(=O)NCC3)cc1 [Example 39, N-(4-cyanophenyl)-4-oxo-4,5,6,7-tetrahydrofuro[3,2-c]pyridine-3-carboxamide] | 430 nM
O=C(Nc1ccc(F)cn1)c1coc2c1C(=O)NCC2 [Example 40, N-(5-fluoropyridin-2-yl)-4-oxo-4,5,6,7-tetrahydrofuro[3,2-c]pyridine-3-carboxamide] | 3240 nM
COc1ccc(NC(=O)c2coc3c2C(=O)NCC3)cn1 [Example 41, N-(6-methoxypyridin-3-yl)-4-oxo-4,5,6,7-tetrahydrofuro[3,2-c]pyridine-3-carboxamide] | 1390 nM
O=C(Nc1ccc(Cl)cn1)c1coc2c1C(=O)NCC2 [Example 42, N-(5-chloropyridin-2-yl)-4-oxo-4,5,6,7-tetrahydrofuro[3,2-c]pyridine-3-carboxamide] | 918 nM
N#Cc1cccc(NC(=O)c2coc3c2C(=O)NCC3)c1 [Example 43, N-(3-cyanophenyl)-4-oxo-4,5,6,7-tetrahydrofuro[3,2-c]pyridine-3-carboxamide] | 5640 nM
CCOc1ccc(NC(=O)c2coc3c2C(=O)NCC3)cn1 [Example 44, N-(6-ethoxypyridin-3-yl)-4-oxo-4,5,6,7-tetrahydrofuro[3,2-c]pyridine-3-carboxamide] | 4470 nM
Cc1n[nH]c2ccc(NC(=O)c3coc4c3C(=O)NCC4)cc12 [Example 45, N-(3-methyl-1H-indazol-5-yl)-4-oxo-4,5,6,7-tetrahydrofuro[3,2-c]pyridine-3-carboxamide] | 3480 nM
Cc1cc2[nH]ncc2cc1NC(=O)c1coc2c1C(=O)NCC2 [Example 46, N-(6-methyl-1H-indazol-5-yl)-4-oxo-4,5,6,7-tetrahydrofuro[3,2-c]pyridine-3-carboxamide] | 855 nM
O=C(Nc1nc2ccccc2s1)c1coc2c1C(=O)NCC2 [Example 47, N-(1,3-benzothiazol-2-yl)-4-oxo-4,5,6,7-tetrahydrofuro[3,2-c]pyridine-3-carboxamide] | 1220 nM
COC(=O)c1n[nH]c2ccc(NC(=O)c3coc4c3C(=O)NCC4)cc12 [Example 48, methyl 5-{[(4-oxo-4,5,6,7-tetrahydrofuro[3,2-c]pyridin-3-yl)carbonyl]amino}-1H-indazole-3-carboxylate] | 506 nM
CCN(CC)c1ccc(NC(=O)c2coc3c2C(=O)NCC3)cc1 [Example 49, N-[4-(diethylamino)phenyl]-4-oxo-4,5,6,7-tetrahydrofuro[3,2-c]pyridine-3-carboxamide] | 631 nM
CN1CCc2occ(C(=O)Nc3ccc(O)cc3)c2C1=O [Example 59, N-(4-hydroxyphenyl)-5-methyl-4-oxo-4,5,6,7-tetrahydrofuro[3,2-c]pyridine-3-carboxamide] | 984 nM
CC(=O)Nc1ccc(NC(=O)c2coc3c2C(=O)N(C)CC3)cc1 [Example 60, N-(4-acetamidophenyl)-5-methyl-4-oxo-4,5,6,7-tetrahydrofuro[3,2-c]pyridine-3-carboxamide] | 2110 nM
CN1CCc2occ(C(=O)Nc3cnc4ccccc4c3)c2C1=O [Example 62, 5-methyl-4-oxo-N-(quinolin-3-yl)-4,5,6,7-tetrahydrofuro[3,2-c]pyridine-3-carboxamide] | 827 nM
CN1CCc2occ(C(=O)Nc3ccc4ncccc4c3)c2C1=O [Example 63, 5-methyl-4-oxo-N-(quinolin-6-yl)-4,5,6,7-tetrahydrofuro[3,2-c]pyridine-3-carboxamide] | 319 nM
Cc1cc(NC(=O)c2coc3c2C(=O)N(C)CC3)no1 [Example 66, 5-methyl-N-(5-methyl-1,2-oxazol-3-yl)-4-oxo-4,5,6,7-tetrahydrofuro[3,2-c]pyridine-3-carboxamide] | 5080 nM
CN1CCc2occ(C(=O)Nc3ccc(C#N)cc3)c2C1=O [Example 67, N-(4-cyanophenyl)-5-methyl-4-oxo-4,5,6,7-tetrahydrofuro[3,2-c]pyridine-3-carboxamide] | 1080 nM
CN1CCc2occ(C(=O)Nc3ccc(F)cn3)c2C1=O [Example 68, N-(5-fluoropyridin-2-yl)-5-methyl-4-oxo-4,5,6,7-tetrahydrofuro[3,2-c]pyridine-3-carboxamide] | 5820 nM

The next compounds have a lower IC50 than those just listed; values first:

IC50 | SMILES
195 nM | CN1CCc2occ(C(=O)Nc3ccc(N4CCCCC4)cc3)c2C1=O [Example 61, 5-methyl-4-oxo-N-[4-(piperidin-1-yl)phenyl]-4,5,6,7-tetrahydrofuro[3,2-c]pyridine-3-carboxamide]
146 nM | COc1ccc(NC(=O)c2coc3c2C(=O)N(C)CC3)c(OC)n1 [Example 65, N-(2,6-dimethoxypyridin-3-yl)-5-methyl-4-oxo-4,5,6,7-tetrahydrofuro[3,2-c]pyridine-3-carboxamide]
134 nM | CN1CCc2occ(C(=O)Nc3ccc4cn[nH]c4c3)c2C1=O [Example 64, N-(1H-indazol-6-yl)-5-methyl-4-oxo-4,5,6,7-tetrahydrofuro[3,2-c]pyridine-3-carboxamide]
108 nM | O=C(Nc1ccc2c(cnn2CCN2CCCC2)c1)c1coc2c1C(=O)NCC2 [Example 54, 4-oxo-N-{1-[2-(pyrrolidin-1-yl)ethyl]-1H-indazol-5-yl}-4,5,6,7-tetrahydrofuro[3,2-c]pyridine-3-carboxamide]
105 nM | CS(=O)(=O)NCCn1ncc2cc(NC(=O)c3coc4c3C(=O)NCC4)ccc21 [Example 58, N-(1-{2-[(methylsulfonyl)amino]ethyl}-1H-indazol-5-yl)-4-oxo-4,5,6,7-tetrahydrofuro[3,2-c]pyridine-3-carboxamide]
90.7 nM | CC(O)Cn1ncc2cc(NC(=O)c3coc4c3C(=O)NCC4)ccc21 (stereo not drawn) [Example 50, N-[1-(2-hydroxypropyl)-1H-indazol-5-yl]-4-oxo-4,5,6,7-tetrahydrofuro[3,2-c]pyridine-3-carboxamide]
67.5 nM | O=C(Nc1ccc2c(cnn2CCO)c1)c1coc2c1C(=O)NCC2 [Example 53, N-[1-(2-hydroxyethyl)-1H-indazol-5-yl]-4-oxo-4,5,6,7-tetrahydrofuro[3,2-c]pyridine-3-carboxamide]
48.5 nM | O=C(Nc1ccc2c(cnn2CCN2CCOCC2)c1)c1coc2c1C(=O)NCC2 [Example 56, N-{1-[2-(morpholin-4-yl)ethyl]-1H-indazol-5-yl}-4-oxo-4,5,6,7-tetrahydrofuro[3,2-c]pyridine-3-carboxamide]
34.6 nM | CN1CCN(CCn2ncc3cc(NC(=O)c4coc5c4C(=O)NCC5)ccc32)CC1 [Example 57, N-{1-[2-(4-methylpiperazin-1-yl)ethyl]-1H-indazol-5-yl}-4-oxo-4,5,6,7-tetrahydrofuro[3,2-c]pyridine-3-carboxamide]
20.8 nM | CC(O)Cn1cc2cc(NC(=O)c3coc4c3C(=O)NCC4)ccc2n1 (stereo not drawn) [Example 55, N-[2-(2-hydroxypropyl)-2H-indazol-5-yl]-4-oxo-4,5,6,7-tetrahydrofuro[3,2-c]pyridine-3-carboxamide]
18.9 nM | CS(=O)(=O)NCCn1cc2cc(NC(=O)c3coc4c3C(=O)NCC4)ccc2n1 [Example 51, N-(2-{2-[(methylsulfonyl)amino]ethyl}-2H-indazol-5-yl)-4-oxo-4,5,6,7-tetrahydrofuro[3,2-c]pyridine-3-carboxamide]
18.4 nM | CN1CCN(CCn2cc3cc(NC(=O)c4coc5c4C(=O)NCC5)ccc3n2)CC1 [Example 52, N-{2-[2-(4-methylpiperazin-1-yl)ethyl]-2H-indazol-5-yl}-4-oxo-4,5,6,7-tetrahydrofuro[3,2-c]pyridine-3-carboxamide]
